Experimental data: patent US10414798B2, “Cancer stem cell targeting peptide and use thereof” (AGRICULTURAL TECHNOLOGY RESEARCH INSTITUTE, priority 2015, dated 2019)
Entries after “also recorded” stand apart in the source; their conditions may differ. Values belong to the substance of their own block, whether it stands above or below them.

How the values were obtained:
[1] = Glycan microarray analysis; assay type: binding; conditions: biotin-CSC HP, Cy3-streptavidin
Procedure: (§1) N-terminus biotin conjugated CSC HPs with the sequences listed in Table A below were synthesized by GeneDirex with purities higher than 95%. Biotin-CSC HPs were dissolved in DMSO to prepare 10 mg/mL stocks.
Glycan Array 100 microchips (Cat. # GA-Glycan-100) were purchased from RayBiotech and were processed following the manufacturer's instruction with some modifications. Briefly, after blocking with 400 μL Sample Diluent (Item E) at room temperature for 30 minutes, the biotin conjugated CSC HPs were diluted to 1 μg/400 μL with Sample Diluent, and hybridization reactions were carried out at room temperature for 2 hours. After washing, 400 μL of 1×Cy3-conjugated streptavidin was added to each well. The incubation chamber was covered with the plastic adhesive strips and the slide was covered with aluminum foil to avoid exposure to light during incubating in a dark room. The slide was incubated with Cy3-conjugated streptavidin at room temperature for 1 hour with gentle rocking or shaking. After thorough washing, the slide was drained completely, and the fluorescent signals on it were read by laser scanner Axon GenePix. The relative intensity on glycan X was defined as (average of X−negative control)/(positive control−negative control)×100%.
The CSC HPs developed could distinguish CSCs from CCs, and this phenomenon was found cross-species between human and mouse. It was very interesting to figure out the targets of these CSC HPs. There were no detectable fluorescent signals of FITC-CSC HPs remaining on the nitrocellulose membrane that had been blotted with CSC membrane proteins separated by SDS PAGE (data not shown). Glycan microarray (Glycan Array 100 microchips), on which 100 kinds of oligosaccharides were spotted 4 times, was utilized to analyze the possibilities of the interactions between oligosaccharides and CSC HPs. Biotin-CSC HPs as listed in Table 2 were hybridized with glycans on chips. The biotin-CSC HPs trapped on the chips were explored with Cy3-conjugated streptavidin, and the fluorescent signals on it were read by a laser scanner. Two major patterns were illustrated in FIGS. 3A-3F. The first one included glycan 16 (Gal-β-1,4-Glc-β-), 18 (Gal-α-1,4-Gal-β-1,4-Glc-β-), and 26 (GalNAc-β-1,3-Gal-α-1,4-Gal-β-1,4-Glc-β-) Globo series (FIG. 3A). Typical cases were CSC HP-1 and CHC HP-hP1 (FIG. 3C). […] The typical cases were CSC HP5, CSC HP6, CSC HP7, and CSC HP9 (FIG. 3C). Two malignancy and metastasis glycan markers, glycan 63 (Fuc-α-1,2-Gal-β-1,4-(Fuc-α-1,3)-GlcNAc-β-, also called Lewis Y epitope) and glycan 69 (Neu5Ac-α-2,6-Gal-β-1,3-(Neu5Ac-α-2,6)-GalNAc-β-), were also detected. […] Both of the two Neu5Ac-α-2,6-residues were necessary for CSC HPs binding (FIG. 3E).

CT26 CSCs [2] = assay: Staining of CSCs with rhodamine B or fluorescein labeled CSC HPs; assay type: binding, mouse; conditions: N-terminal rhodamine B or fluorescein conjugate, fluorescence
Procedure: [The procedure below names another cell line; the source lists this cell line under the same test.] (§2) 20 μg/mL of Rhodamine B labeled CSC HP1 (Rd-CSC HP-1) and CSC HP2 (Rd-CSC HP-2) as well as FITC labeled CSC HP11 (FITC-CSC HP-11) were directly used to stain EMT6 CSCs and CCs. Cells were counter-stained with DAPI.
(§3) According to the results above, CSC HP-1, CSC HP-2, CSC HP-3, CSC HP-8, CSC HP-9, CSC HP-10, and CSC HP-11 were selected and chemically synthesized with N-terminal conjugation with rhodamine B or fluorescein. […] It was of interest to determine whether these CSC HPs derived from mouse cancers could recognize human CSCs.

EMT6 CSCs = assay: as above; assay type: binding, mouse; conditions: N-terminal rhodamine B or fluorescein conjugate, fluorescence
Procedure: as §2, §3

Hepa1-6 CSCs [3] = assay: as above; assay type: binding, mouse; conditions: N-terminal rhodamine B or fluorescein conjugate, fluorescence
Procedure: [The procedure below names another cell line; the source lists this cell line under the same test.] as §2, §3

PANC-1 CSCs = assay: Staining of tumorospheres with rhodamine B or fluorescein labeled CSC HPs; assay type: binding, human; conditions: N-terminal rhodamine B or fluorescein conjugate, fluorescence
Procedure: [The procedure below names another cell line; the source lists this cell line under the same test.] as §2, §3

cancer cells (CCs) = assay: Parallel CC experiments with labeled CSC HPs; assay type: binding, mouse; conditions: N-terminal rhodamine B or fluorescein conjugate, fluorescence
Procedure: as §2, §3

[4] = test system: mouse embryonic stem cell (mESC); assay: M13 phage display selection, secondary CSC/ESC HP-library (ESC bound fraction); assay type: binding
Procedure: (§4) The M13 PhD-7 library (NEB, E8100) which contains 10^9 independent clones was purchased from New England Biolabs Inc. 10^13 plaque firming units (pfus) of M13 PhD-7 phages in 10 mL DMEM were pre-adsorbed by cancer cells in a T75 flask twice, each for 1 hour. Subsequently, the supernatant was transferred to a T25 flask containing 5×10^6 CSCs and incubated for 1 hour. The unbound and weakly associated phages were removed by centrifugation and suspension three times in DMEM/0/2% BSA. The cell pellet was suspended in 1 mL PBS containing 10^9 E. coli ER2738 and incubated in a shaker for 1 hour. Then 10 mL LB/5 mM MgCl2 was added. After being cultured over-night at 37° C., the cells were removed by centrifugation and phages in the supernatant were titrated. The aforementioned selection procedures were carried out for three rounds for EMT6 and PANC-1 to obtain the primary EMT6 CSC homing peptide (HP)- and PANC-1 CSC HP-library, respectively. Subsequently, M13 plaques were picked up to prepare the DNA for sequencing. […]
(§5) The primary CSC HP-library was selected directly once by either CT26 or Hepa1-6 CSCs to test the bias of CSC HP affinities to different kinds of cancers. […] Two new peptide sequences, KIYTTLD (CSC HP-9) (SEQ ID NO: 11) and NLQPPAY (CSC HP-12) (SEQ ID NO: 12), were read in the ESC unbound fraction (CSC HP-library) (Table 1).

[5] = Glycan microarray analysis, major signal pattern; assay type: binding; conditions: biotin-CSC HP, Cy3-streptavidin
Procedure: as §1
Glycan Array 100 microchips (Cat. # GA-Glycan-100) were purchased from RayBiotech and were processed following the manufacturer's instruction with some modifications. Briefly, after blocking with 400 μL Sample Diluent (Item E) at room temperature for 30 minutes, the biotin conjugated CSC HPs were diluted to 1 μg/400 μL with Sample Diluent, and hybridization reactions were carried out at room temperature for 2 hours. After washing, 400 μL of 1×Cy3-conjugated streptavidin was added to each well. […] After thorough washing, the slide was drained completely, and the fluorescent signals on it were read by laser scanner Axon GenePix. […]
The CSC HPs developed could distinguish CSCs from CCs, and this phenomenon was found cross-species between human and mouse. […] The biotin-CSC HPs trapped on the chips were explored with Cy3-conjugated streptavidin, and the fluorescent signals on it were read by a laser scanner. […] Two malignancy and metastasis glycan markers, glycan 63 (Fuc-α-1,2-Gal-β-1,4-(Fuc-α-1,3)-GlcNAc-β-, also called Lewis Y epitope) and glycan 69 (Neu5Ac-α-2,6-Gal-β-1,3-(Neu5Ac-α-2,6)-GalNAc-β-), were also detected. […]

CT26 CSCs [6] = assay: M13 phage display selection, secondary CT26 CSC HP-library; assay type: binding, mouse; conditions: from Table 1
Procedure: as §4, §5

Hepa1-6 CSCs [7] = assay: M13 phage display selection, secondary Hepa1-6 CSC HP-library; assay type: binding, mouse; conditions: from Table 1
Procedure: as §4, §5

Substance: ATYGNLW (Cancer Stem Cell Targeting Peptide) [CSC HP-5, synthetic peptide that targets cancer stem cells]
binding to glycan 19 [1]: bound strongly

Substance: GPSASRN (Cancer Stem Cell Targeting Peptide) [CSC HP-10, synthetic peptide that targets cancer stem cells]
association with CT26 CSCs (CT26 CSCs [2]): specifically associated
association with EMT6 CSCs (EMT6 CSCs): specifically associated
association with Hepa1-6 CSCs (Hepa1-6 CSCs [3]): specifically associated
association with PANC-1 tumorospheres (PANC-1 CSCs): definitely associated
detection in parallel CC experiments (cancer cells (CCs)): not detectable
signal on glycan 69 [1]: higher signals

Substance: GMMSSPP (Cancer Stem Cell Targeting Peptide) [CSC HP-2, synthetic peptide that targets cancer stem cells]
association with CT26 CSCs (CT26 CSCs [2]): specifically associated
association with EMT6 CSCs (EMT6 CSCs): specifically associated
association with Hepa1-6 CSCs (Hepa1-6 CSCs [3]): specifically associated
association with PANC-1 tumorospheres (PANC-1 CSCs): definitely associated
detection in parallel CC experiments (cancer cells (CCs)): not detectable

Substance: SQPTWMF (Cancer Stem Cell Targeting Peptide) [CSC HP-1, synthetic peptide that targets cancer stem cells]
enrichment in the ESC bound fraction [4]: further enriched
association with CT26 CSCs (CT26 CSCs [2]): specifically associated
association with EMT6 CSCs (EMT6 CSCs): specifically associated
association with Hepa1-6 CSCs (Hepa1-6 CSCs [3]): specifically associated
association with PANC-1 tumorospheres (PANC-1 CSCs): definitely associated
detection in parallel CC experiments (cancer cells (CCs)): not detectable
major pattern of glycan microarray signals [5]: Globo series
binding / signal on glycan 63 [1]: higher signals; also recorded: bound more strongly
binding to glycan 26 [1]: bound strongly and specifically

Substance: GLAPFNA (Cancer Stem Cell Targeting Peptide) [CSC HP-11, synthetic peptide that targets cancer stem cells]
association with CT26 CSCs (CT26 CSCs [2]): specifically associated
association with EMT6 CSCs (EMT6 CSCs): specifically associated
association with Hepa1-6 CSCs (Hepa1-6 CSCs [3]): specifically associated
association with PANC-1 tumorospheres (PANC-1 CSCs): definitely associated
detection in parallel CC experiments (cancer cells (CCs)): not detectable
signal on glycan 69 [1]: higher signals

Substance: GSPVMSW (Cancer Stem Cell Targeting Peptide) [CSC HP-hP2, synthetic peptide that targets cancer stem cells]
signal on glycan 69 [1]: higher signals

Substance: YHQVKPH (Cancer Stem Cell Targeting Peptide) [CSC HP-hP3, synthetic peptide that targets cancer stem cells]
signal on glycan 69 [1]: higher signals

Substance: FSGGGNH (Cancer Stem Cell Targeting Peptide) [CSC HP-3, synthetic peptide that targets cancer stem cells]
bias of CSC HP affinity to Hepa1-6 CSCs (Hepa1-6 CSCs [7]): more specific
association with CT26 CSCs (CT26 CSCs [2]): specifically associated
association with EMT6 CSCs (EMT6 CSCs): specifically associated
association with Hepa1-6 CSCs (Hepa1-6 CSCs [3]): specifically associated
association with PANC-1 tumorospheres (PANC-1 CSCs): definitely associated
detection in parallel CC experiments (cancer cells (CCs)): not detectable
binding to glycan 26 [1]: weakly bound

More lines, main results first:

binding to glycan 19 [1]: bound strongly
Substance: YHMPALM (Cancer Stem Cell Targeting Peptide) [CSC HP-6, synthetic peptide that targets cancer stem cells]

binding to glycan 19 [1]: bound strongly
Substance: HGGVRLY (Cancer Stem Cell Targeting Peptide) [CSC HP-7, synthetic peptide that targets cancer stem cells]

binding to glycan 26 [1]: weakly bound
Substance: ELTPLTL (Cancer Stem Cell Targeting Peptide) [CSC HP-8, synthetic peptide that targets cancer stem cells]
bias of CSC HP affinity to CT26 CSCs (CT26 CSCs [6]): more specific
association with CT26 CSCs (CT26 CSCs [2]): specifically associated
association with EMT6 CSCs (EMT6 CSCs): specifically associated
association with Hepa1-6 CSCs (Hepa1-6 CSCs [3]): specifically associated
association with PANC-1 tumorospheres (PANC-1 CSCs): definitely associated
detection in parallel CC experiments (cancer cells (CCs)): not detectable

binding to glycan 26 [1]: bound strongly and specifically
Substance: GPKVTIW (Cancer Stem Cell Targeting Peptide) [CSC HP-hP1, synthetic peptide that targets cancer stem cells]
major pattern of glycan microarray signals [5]: Globo series
binding / signal on glycan 63 [1]: higher signals; also recorded: bound more strongly

binding to glycan 19 [1]: bound strongly
Substance: KIYTTLD (Cancer Stem Cell Targeting Peptide) [CSC HP-9, synthetic peptide that targets cancer stem cells]
association with CT26 CSCs (CT26 CSCs [2]): specifically associated
association with EMT6 CSCs (EMT6 CSCs): specifically associated
association with Hepa1-6 CSCs (Hepa1-6 CSCs [3]): specifically associated
association with PANC-1 tumorospheres (PANC-1 CSCs): definitely associated
detection in parallel CC experiments (cancer cells (CCs)): not detectable
signal on glycan 69 [1]: higher signals
